In patent US11324768B2, “Applications of triacetyl-3-hydroxyl phenyl adenosine in treating vascular inflammations or improving vascular endothelium functions” (priority 2016, dated 2022):

How the values were obtained:
Format in all cases: in vivo
ApoE−/− mice [1] = test: Intravascular inflammatory response in high-fat-fed ApoE−/− mice (chronic inflammation model); conditions: 8 weeks, high-fat diet
Procedure: After 1 week of adaptive feeding, the animals were randomly divided into 4 groups according to body weight: model control group, A769662 (30 mg/kg, ip), metformin (260 mg/kg), IMM-H007 (100 mg/kg) administration groups, 7 in each group, and were given a high-fat diet (78.6% basal diet, 10% lard, 1.00%/cholesterol, 10% egg yolk powder, and 0.4% bile salt), and simultaneously administered intragastrically at a dose of 0.1 ml/10 g body weight, and were continuously administered and fed for 8 weeks. The mice were anesthetized with pentobarbital sodium (60 mg/kg body weight). The right side of the mice was fixed on a observation table. A small mouth was cut along the abdominal cavity. The mesenteric vascular bed was gently pulled out. The small intestine of the mice was fixed in an observation window, the microscope is turned on to find a clear third-order mesenteric vein under a low power microscope, and then adjusted to 20-fold magnification for observation, after adjusting the brightness and focal length to the optimum, the white light was turned off, the fluorescence was turned on, and the leukocyte movement in the blood vessel could be observed. A 1 min leukocyte movement video was collected from each vessel segment using the ToumView software of the Dynamic Visual Microvascular Research System (Gene&I-SMC1). Leukocyte movement rate and number of leukocyte-endothelial cells adhesion were analyzed using image pro 6.0.
(1) Leukocyte Movement Rate and (2) Number of Leukocyte-Endothelial Cell Adhesion

C57BL/6J mice = test: TNF-α-induced acute vascular inflammation in mice (leukocyte movement rate and leukocyte-endothelial cell adhesion in mesenteric venules); conditions: 7 days, 4 h after TNF-α
Procedure: 60 C57BL/6J mice were randomly divided into 6 groups according to body weight: normal control group, model control group, IMM-H007 group, positive control AMPK agonist group metformin, A769662 group, and atorvastatin group, respectively, and were intragastrically administered with physiological saline, IMM-H007 (100 mg/kg), metformin (260 mg/kg), and atorvastatin (lipitor, 10 mg/kg), respectively, and injected intraperitoneally with A769662 (30 mg/kg, which is difficult to absorb by oral administration) for 7 consecutive days. On the 8th day, except that the blank control group was intraperitoneally injected with normal saline, other groups were all intraperitoneally injected with TNF-α (0.3 μg/dose) to induce acute inflammations in the blood vessels. Four hours after the injection of TNF-α, the optic nerve vascular plexus was intravenously injected with 0.05% Rhodamine-6G, and leukocytes were fluorescently labeled with 100 μl. The mice were anesthetized with pentobarbital sodium. The right side of the mice was fixed on a observation table. A small mouth was cut along the abdominal cavity. The mesenteric vascular bed was gently pulled out. The small intestine of the mice was fixed in a observation window. The microscope is turned on to find a clear third-order mesenteric vein under a low power microscope, and then adjusted to 20-fold magnification for observation, after adjusting the brightness and focal length to the optimum, the white light was turned off, the fluorescence was turned on, and a 1 min leukocyte movement video was collected from each vessel segment using the ToumView software of the Dynamic Visual Microvascular Research System (Gene&I-SMC1). The leukocyte movement rate and leukocyte-endothelial cell adhesion number reflect intravascular inflammations and are early signs of endothelial dysfunction.
The leukocyte movement rate was analyzed with image pro 6.0. At least three observation points were selected for each observation field, and at least 9 observation sites were finally counted for each mouse. The mean value was calculated to obtain the average leukocyte movement rate.

VCAM-1 = test: Serum inflammatory factor VCAM-1 in ApoE−/− mice (ELISA)
TNF-α = test: Serum inflammatory factor TNF-α in ApoE−/− mice (ELISA); parameters: unit not given here
Procedure: After 1 week of adaptive feeding, the animals were randomly divided into 7 groups according to body weight: normal control group, model control group A769662 (30 mg/kg) administration group, metformin (260 mg/kg) administration group, IMM-H007 low, medium, and high administration groups (50, 100, 200 mg/kg), 8 in each group, and were given a high-fat diet (78.6% basal diet, 10% lard, 1.0% cholesterol, 10% egg yolk powder, and 0.4% bile salt), […] body weight, and were continuously administered and fed for 8 weeks to establish an atherosclerosis model.
(2) Effect of IMM-H007 on Serum Inflammatory Factors TNF-α and VCAM-1 in ApoE−/− Mice
Operated according to kit instructions

ApoE−/− mice [2] = test: Plaque area in ApoE−/− mice (oil red O staining of aorta and aortic root); conditions: for plaque area, Overall length of aorta: in % (unit assumed)
Procedure: After 1 week of adaptive feeding, the animals were randomly divided into 7 groups according to body weight: normal control group, model control group A769662 (30 mg/kg) administration group, metformin (260 mg/kg) administration group, IMM-H007 low, medium, and high administration groups (50, 100, 200 mg/kg), 8 in each group, and were given a high-fat diet (78.6% basal diet, 10% lard, 1.0% cholesterol, 10% egg yolk powder, and 0.4% bile salt), and simultaneously administered intragastrically at a dose of 0.1 ml/10 g body weight, […] model.
The aortic root was stained with oil red O and the overall length of the aorta was stained with oil red O. The pathological images were analyzed by Photoshop, Image 1, and Image-Pro Plus softwares. The pathological grading data were statistically analyzed using Chi-square test.

For `N#Cc1c(O)c2c(-c3ccc(-c4ccccc4O)cc3)csc2[nH]c1=O` [A769662], the Leukocyte movement rate (ApoE−/− mice [1]; 30 mg/kg, ip) was 28.7 ± 7 µm/s, the “Number of leukocyte adhesion” value (ApoE−/− mice [1]; 30 mg/kg, ip) was 13.7 ± 4.9 number/200 micron and the Leukocyte movement rate (C57BL/6J mice; 30 mg/kg, ip) was 24.9 ± 3.8 µm/s. The “Number of leukocyte adhesion” value (C57BL/6J mice; 30 mg/kg, ip) was 3.5 ± 1.8 number/200 micron, the “serum VCAM-1” value (VCAM-1; 30 mg/kg, ip) was 233.1 ± 18.3 and the “serum TNF-α” value (TNF-α; 30 mg/kg, ip) was 247.3 ± 49.7. For the same compound, the “plaque area, Frozen section of root of aorta %” value (ApoE−/− mice [2]; 30 mg/kg, ip) was 3.02 ± 0.89 % and the “plaque area, Overall length of aorta” value (ApoE−/− mice [2]; 30 mg/kg, ip) was 2.61 ± 1.80.

For `CC(C)c1c(C(=O)Nc2ccccc2)c(-c2ccccc2)c(-c2ccc(F)cc2)n1CC[C@@H](O)C[C@@H](O)CC(=O)O` [Atorvastatin, atorvastatin], the Leukocyte movement rate (C57BL/6J mice; 10 mg/kg intragastric) was 20.6 µm/s and the Number of leukocyte adhesion (C57BL/6J mice; 10 mg/kg intragastric) was 5.3 number/200 µm.

With `CN(C)C(=N)N=C(N)N` [Metformin, metformin] the Leukocyte movement rate (ApoE−/− mice [1]; 260 mg/kg) was 21.4 µm/s, the “Number of leukocyte adhesion” value (ApoE−/− mice [1]; 260 mg/kg) was 16.3 ± 6.8 number/200 micron and the Leukocyte movement rate (C57BL/6J mice; 260 mg/kg intragastric) was 21.5 µm/s. The “Number of leukocyte adhesion” value (C57BL/6J mice; 260 mg/kg intragastric) was 5.1 ± 2.2 number/200 micron, the “serum VCAM-1” value (VCAM-1; 260 mg/kg) was 234.9 ± 16.7 and the “serum TNF-α” value (TNF-α; 260 mg/kg) was 229.1 ± 35.2. The “plaque area, Frozen section of root of aorta %” value (ApoE−/− mice [2]; 260 mg/kg) was 3.73 ± 1.15 % and the “plaque area, Overall length of aorta” value (ApoE−/− mice [2]; 260 mg/kg) was 3.13 ± 1.76.
